This passage reports IC50 results from ChEMBL document CHEMBL1201862, “PubChem BioAssay data set” (2004).

The target in one assay is Melanocortin receptor 4 (Homo sapiens, UniProt P32245). Put plainly: MC4R antagonist potency on cAMP, dose response, cell-based, TR-FRET, biased antagonists (AID 602298).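 Further: antagonist potency against agonist-stimulated cAMP production.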 The class given is functional. In general terms: In TR-FRET formats the signal depends on donor and acceptor labels being close together.
Melanocortin receptor 4, sequence (P32245 whole entry): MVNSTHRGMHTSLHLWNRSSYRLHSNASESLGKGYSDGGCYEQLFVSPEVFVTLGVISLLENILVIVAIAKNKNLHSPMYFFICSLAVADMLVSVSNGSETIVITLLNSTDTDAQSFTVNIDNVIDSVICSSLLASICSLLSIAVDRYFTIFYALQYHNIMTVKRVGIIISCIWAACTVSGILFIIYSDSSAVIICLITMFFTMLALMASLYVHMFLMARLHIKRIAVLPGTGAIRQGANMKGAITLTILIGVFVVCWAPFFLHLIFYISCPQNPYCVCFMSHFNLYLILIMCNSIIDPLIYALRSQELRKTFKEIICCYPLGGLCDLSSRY
Assay [1] can be described thus: nonselective inhibitors of cellular cAMP signaling, dose response, counter-screen for MC4R biased antagonist project, cell-based, TR-FRET cAMP detection (AID 602305).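 Further: U2OS cells stimulated with forskolin near its EC80 as the cAMP inducer; potency is for inhibition of forskolin-stimulated cAMP signaling.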 The format is functional. (In general: A counterscreen serves to expose hits that act by an unwanted route or on another target.)

The structures appear in SMILES notation. Activity calls are given as the source filed them. Bounds are passed on as bounds.

The term IC50 denotes the concentration at which inhibition is half-maximal. With `Cc1ccc(S(=O)(=O)N(C)CC(=O)OCC(=O)NC(=O)NC(C)C)cc1`, the IC50 (on Melanocortin receptor 4; in assay [1]) was > 64.6 µM (inactive) throughout.
